Numbered stars: 1 amine (or outer) side, 2 acyl side, 3 side chain; on linkers, the order of the positions; unused ones are H or OH. Bridge positions count the residues as written; N and C are the ends. Square brackets hold non-standard residues; d marks the D form. Peptide text beside a SMILES is read from it. * marks the point of attachment. X5 = O=C([C@@H]1C[C@@H](OP(=O)(O)O)CN1[*:1])[*:2]; Phe(3,5-Me2) = Cc1cc(C)cc(C[C@H](N)C(=O)O)c1; Phe(3-Me) = Cc1cccc(C[C@H](N)C(=O)O)c1; NH(4-Cl-2-F-phenyl) = Fc1cc(Cl)ccc1N*; Pro(4R-Me) = C[C@H]1CN[C@H](C(=O)O)C1; X1 = O=C([C@@H]1CSCCN1[*:1])[*:2]; Hyp = O=C(O)[C@@H]1C[C@@H](O)CN1; NH(4-Me-phenyl) = Cc1ccc(N*)cc1; aThr = C[C@H](O)[C@H](N)C(=O)O; Pip = O=C(O)[C@@H]1CCCCN1; CO = O=C([*:1])[*:2]
What was measured:
[1] = Microsomal metabolic stability; type: in vitro ADME, human
Description: Compounds were initially prepared by dissolving them into DMSO at a final concentration of 10 mM. NADPH regenerating solutions A and B and mouse liver microsomes (CD-1) were obtained from BD Gentest (Woburn, Mass.). Ninety-six well deep well plates were obtained from MidWest Scientific Inc (Valley Park, Mo.).
Sample preparation for microsomal stability was modified from methods of Di, L., et al., Int J Pharm. 2005 Jun. 13; 297(1-2):110-9. A set of incubation times of 0, 15, 30, 60, 120, and 240 minutes were used. Mouse liver microsomal solutions were prepared by adding 58 μL of concentrated human or mouse liver microsomes (20 mg/mL protein concentration) to 1.756 mL of 0.1 M potassium phosphate buffer (pH 7.4) and 5 μL of 0.5 M EDTA to make a 0.6381 mg/mL (protein) microsomal solution. NADPH regenerating agent contained 113 μL of NADPH A, 23 μL of NADPH B, and 315 μL of 0.1 M potassium phosphate buffer (pH 7.4). The diluted test compound solutions (2 μL) were each added directly to a 1.79 mL of liver microsomal solution. This solution was mixed and 90 μL was transferred to 6 time points plates (each in triplicate wells). For the time 0 plate, 225 μL of cold acetonitrile with internal standard ([…] warfarin) was added to each well, followed by addition of NADPH regenerating agent (22.5 μL) and no incubation. For other five time points' plate, NADPH regenerating agent (22.5 μL) was added to each well to initiate the reaction. The plates were incubated at 37° C. for the required time, followed by quenching of the reaction by adding 225 μL of cold acetonitrile with internal standard (4 μg/ml warfarin). All of the plates were sealed and mixed well at 600 rpm for 10 minutes followed by centrifugation at 4000 rpm for 20 minutes. The supernatants (120 μL) were transferred to analytical plates for analysis by LCMS. LCMS conditions were described in the materials and instrumentation section above. The metabolic stability is evaluated via the half-life from least-squares fit of the multiple time points based on first-order kinetics.

[2] = Plasma protein binding, rapid equilibrium dialysis; type: in vitro ADME, mouse
Description: This assay determines plasma protein binding of a drug/compound and free drug concentration in plasma using rapid equilibrium dialysis, which allow the aqueous component of plasma containing the free drug/compound through a dialysis membrane (MWCO˜8,000).
Solutions were prepared at 10 mM in DMSO. Dulbecco's phosphate buffered saline (DPBS; pH 7.4) was obtained from Invitrogen (Carlsbad, Calif.). Single-Use RED (rapid equilibrium dialysis) device was obtained from Thermo scientific (Rockford, Ill.). Human plasma was obtained from Innovative Research INC (Novi, Michigan, Ill).
Sample preparation for plasma protein binding was modified from Waters' method. (Waters et al. (2008) J. Pharm. Sci. 97(10): 4586-95). The Teflon base plate with the RED inserts (MWCO 8 K) were allowed to use without any pre-condition the membrane inserts. Human plasma was thawed and centrifuged at 1000 rpm for 2 min to remove any particulates. Each compound was prepared at 10 μM in human plasma. This was done by adding 1 μL, of drug solution (10 mM in DMSO) to 1000 μL, of human plasma (0.1% DMSO). Spiked plasma solutions (300 μL) were placed into the sample chamber (indicated by the red ring) and 500 μL, of DPBS into the adjacent chamber. The plate was sealed and incubated at 37° C. on an orbital shaker (100 rpm) for 4 hours. After incubation, the seal was removed from the RED plate and the volume of the insert confirmed—little to no volume change occurred. Aliquots (50 μL) were removed from each side of the insert and dispensed into a 96-well deep plate. An equal volume of blank plasma or DPBS was added to the required wells to create analytically identical sample matrices (matrix matching). To each sample 200 μL, of ACN containing 4 μg/mL warfarin IS was added. All of the plates were sealed and mixed well at 600 rpm for 10 min and were centrifuged at 4000 rpm for 20 min. The supernatants (120 μL) were transferred to analytical plates for analysis by LCMS. Conditions for Waters ACQUITY-UPLC-MS-UV system were described separately. The test compound concentrations were quantified in both buffer and plasma chambers via peak areas relative to the internal standard. The percentage of the test compound bound to plasma was calculated on following equations: % Free=(Concentration buffer chamber/concentration plasma chamber)×100% and % Bound=100%-% Free.

[3] = microsomal metabolic stability half-life, human liver microsomes
[4] = plasma binding, % Bound, mouse plasma

Compound	Human ([1]; human, pH 7.4)	Mouse ([2]; mouse, 4 h, 10 μM, pH 7.4) [%]	Human [1, 3]	Mouse [2, 4] [%]
Cc1cccc(C[C@H](NC(=O)Nc2ccc3c(c2)OCCO3)C(=O)N[C@H]2COC(=O)[C@@H]3C[C@@H](C)CN3C(=O)[C@H](C)NC(=O)[C@@H]3CCCCN3C(=O)[C@@H]3CCCN3C2=O)c1 [Compound 22, (S)-2-(3-(2,3-DIHYDROBENZO[B][1,4]DIOXIN-6-YL)UREIDO)-N-((2R,6S,8AS,14AS,20S,23AS)-2,6-DIMETHYL-5,8,14,19,23-PENTAOXOOCTADECAHYDRO-1H,5H,14H,19H-PYRIDO[2,1-I]DIPYRROLO[2,1-C:2′,1′-L][1]OXA[4,7,10,13]TETRAAZACYCLOHEXADECIN-20-YL)-3-(M-TOLYL)PROPANAMIDE]	3.57 ± 0.52 h	98.4 ± 0.1		
Cc1cccc(C[C@H](NC(=O)Nc2ccc(Cl)cc2F)C(=O)N[C@H]2COC(=O)[C@@H]3C[C@@H](C)CN3C(=O)[C@H](C)NC(=O)[C@@H]3CCCCN3C(=O)[C@@H]3CCCN3C2=O)c1 [Compound 8, (S)-2-(3-(4-CHLORO-2-FLUOROPHENYL)UREIDO)-N-((2R,6S,8AS,14AS,20S,23AS)-2,6-DIMETHYL-5,8,14,19,23-PENTAOXOOCTADECAHYDRO-1H,5H,14H,19H-PYRIDO[2,1-I]DIPYRROLO[2,1-C:2′,1′-L][1]OXA[4,7,10,13]TETRAAZACYCLOHEXADECIN-20-YL)-3-(M-TOLYL)PROPANAMIDE]	0.89 ± 0.13 h	98.9 ± 0.4		
Cc1cccc(C[C@H](NC(=O)Nc2ccc(Cl)cc2F)C(=O)N[C@@H]2C(=O)N3C[C@H](OP(=O)(O)O)C[C@H]3C(=O)N3CCCC[C@H]3C(=O)N[C@@H](C)C(=O)N3C[C@H](C)C[C@H]3C(=O)O[C@H]2C)c1 [Compound 29, (2R,6S,8AS,14AS,16R,20S,21S,23AS)-20-((S)-2-(3-(4-CHLORO-2-FLUOROPHENYL)UREIDO)-3-(M-TOLYL)PROPANAMIDO)-2,6,21-TRIMETHYL-5,8,14,19,23-PENTAOXOOCTADECAHYDRO-1H,5H,14H,19H-PYRIDO[2,1-I]DIPYRROLO[2,1-C:2′,1′-L][1]OXA[4,7,10,13]TETRAAZACYCLOHEXADECIN-16-YL DIHYDROGEN PHOSPHATE] ({NH(4-Cl-2-F-phenyl)-CO}-[Phe(3-Me)][aThr][X5][Pip]A[Pro(4R-Me)]; ester 2-C)			>4 h	96.9 ± 6.9
Cc1cccc(C[C@H](NC(=O)Nc2ccc(Cl)cc2F)C(=O)N[C@@H]2C(=O)N3C[C@H](O)C[C@H]3C(=O)N3CCSC[C@H]3C(=O)N[C@@H](C)C(=O)N3C[C@H](C)C[C@H]3C(=O)O[C@H]2C)c1 [Compound 41, (S)-2-(3-(4-CHLORO-2-FLUOROPHENYL)UREIDO)-N-((6AS,8R,12S,13S,15AS,17R,21S,23AR)-8-HYDROXY-13,17,21-TRIMETHYL-6,11,15,20,23-PENTAOXOOCTADECAHYDRO-6H,11H,15H-DIPYRROLO[2,1-C:2′,1′-L][1,4]THIAZINO[3,4-I][1]OXA[4,7,10,13]TETRAAZACYCLOHEXADECIN-12-YL)-3-(M-TOLYL)PROPANAMIDE] ({NH(4-Cl-2-F-phenyl)-CO}-[Phe(3-Me)][aThr][Hyp][X1]A[Pro(4R-Me)]; ester 2-C)	0.41 ± .413 h	99.9 ± 9.9		
Cc1ccc(NC(=O)N[C@@H](Cc2cc(C)cc(C)c2)C(=O)N[C@@H]2C(=O)N3CCC[C@H]3C(=O)N3CCCC[C@H]3C(=O)N[C@@H](C)C(=O)N3C[C@H](C)C[C@H]3C(=O)O[C@H]2C)cc1 [Compound 2, (S)-3-(3,5-DIMETHYLPHENYL)-2-(3-(P-TOLYL)UREIDO)-N-((2R,6S,8AS,14AS,20S,21S,23AS)-2,6,21-TRIMETHYL-5,8,14,19,23-PENTAOXOOCTADECAHYDRO-1H,5H,14H,19H-PYRIDO[2,1-I]DIPYRROLO[2,1-C:2′,1′-L][1]OXA[4,7,10,13]TETRAAZACYCLOHEXADECIN-20-YL)PROPANAMIDE] ({NH(4-Me-phenyl)-CO}-[Phe(3,5-Me2)][aThr]P[Pip]A[Pro(4R-Me)]; ester 2-C)			0.62 h	99.2
Cc1ccc(NC(=O)N[C@@H](Cc2cccc(C)c2)C(=O)N[C@@H]2C(=O)N3C[C@H](O)C[C@H]3C(=O)N3CCSC[C@H]3C(=O)N[C@@H](C)C(=O)N3C[C@H](C)C[C@H]3C(=O)O[C@H]2C)cc1 [Compound 42, (S)—N-((6AS,8R,12S,13S,15AS,17R,21S,23AR)-8-HYDROXY-13,17,21-TRIMETHYL-6,11,15,20,23-PENTAOXOOCTADECAHYDRO-6H,11H,15H-DIPYRROLO[2,1-C:2′,1′-L][1,4]THIAZINO[3,4-I][1]OXA[4,7,10,13]TETRAAZACYCLOHEXADECIN-12-YL)-3-(M-TOLYL)-2-(3-(P-TOLYL)UREIDO)PROPANAMIDE] ({NH(4-Me-phenyl)-CO}-[Phe(3-Me)][aThr][Hyp][X1]A[Pro(4R-Me)]; ester 2-C)			0.81 ± .813 h	97.4 ± 7.4
Cc1cccc(C[C@H](NC(=O)Nc2ccc(Cl)cc2F)C(=O)N[C@@H]2C(=O)N3CCC[C@H]3C(=O)N3CCCC[C@H]3C(=O)N[C@@H](C)C(=O)N3C[C@H](C)C[C@H]3C(=O)O[C@H]2C)c1 [Compound 3, (S)-2-(3-(4-CHLORO-2-FLUOROPHENYL)UREIDO)-3-(M-TOLYL)-N-((2R,6S,8AS,14AS,20S,21S,23AS)-2,6,21-TRIMETHYL-5,8,14,19,23-PENTAOXOOCTADECAHYDRO-1H,5H,14H,19H-PYRIDO[2,1-I]DIPYRROLO[2,1-C:2′,1′-L][1]OXA[4,7,10,13]TETRAAZACYCLOHEXADECIN-20-YL)PROPANAMIDE] ({NH(4-Cl-2-F-phenyl)-CO}-[Phe(3-Me)][aThr]P[Pip]A[Pro(4R-Me)]; ester 2-C)	4.68 ± 0.78 h	99.3 ± 0.1		
Cc1cccc(C[C@H](NC(=O)Nc2ccc(Cl)cc2F)C(=O)N[C@@H]2C(=O)N3C[C@H](O)C[C@H]3C(=O)N3CCCC[C@H]3C(=O)N[C@@H](C)C(=O)N3C[C@H](C)C[C@H]3C(=O)O[C@H]2C)c1 [Compound 6, (S)-2-(3-(4-CHLORO-2-FLUOROPHENYL)UREIDO)-N-((2R,6S,8AS,14AS,16R,20S,21S,23AS)-16-HYDROXY-2,6,21-TRIMETHYL-5,8,14,19,23-PENTAOXOOCTADECAHYDRO-1H,5H,14H,19H-PYRIDO[2,1-I]DIPYRROLO[2,1-C:2′,1′-L][1]OXA[4,7,10,13]TETRAAZACYCLOHEXADECIN-20-YL)-3-(M-TOLYL)PROPANAMIDE] ({NH(4-Cl-2-F-phenyl)-CO}-[Phe(3-Me)][aThr][Hyp][Pip]A[Pro(4R-Me)]; ester 2-C)	4.83 ± 1.5 h	99.5 ± 0.1		
Cc1cc(C)cc(C[C@H](NC(=O)Nc2ccc(Cl)cc2F)C(=O)N[C@@H]2C(=O)N3CCC[C@H]3C(=O)N3CCCC[C@H]3C(=O)N[C@@H](C)C(=O)N3C[C@H](C)C[C@H]3C(=O)O[C@H]2C)c1 [Compound 4, (S)-2-(3-(4-CHLORO-2-FLUOROPHENYL)UREIDO)-3-(3,5-DIMETHYLPHENYL)-N-((2R,6S,8AS,14AS,20S,21S,23AS)-2,6,21-TRIMETHYL-5,8,14,19,23-PENTAOXOOCTADECAHYDRO-1H,5H,14H,19H-PYRIDO[2,1-I]DIPYRROLO[2,1-C:2′,1′-L][1]OXA[4,7,10,13]TETRAAZACYCLOHEXADECIN-20-YL)PROPANAMIDE] ({NH(4-Cl-2-F-phenyl)-CO}-[Phe(3,5-Me2)][aThr]P[Pip]A[Pro(4R-Me)]; ester 2-C)	0.94 ± 0.09 h	99.8 ± 0.0		

Reference: patent publication US10570179B2, “Substituted urea depsipeptide analogs as activators of the CLPP endopeptidase” (priority 2016, dated 2020)
